{"source": "patent US20230339878A1", "about": "“SLC26A3 INHIBITORS AND USE THEREOF” (THE REGENTS OF THE UNIVERSITY OF CALIFORNIA, priority 2018, published 2023)", "key": {"[1]": {"tested_on": "mouse distal colonic closed loops", "assay": "Closed distal colonic loop fluid absorption in mice", "type": "in vivo", "details": "10 µM intraluminal, 60 min", "method": "(§1) Female CD1 mice (age 8-10 weeks) were given free access to Pedialyte (per liter: Na^+ 45 mEq, Cl^- 35 mEq, K^+ 20 mEq, dextrose 25 g; Abbott, Abbot Park, IL) but not solid food for 48 h before experiments. Mice were treated with 500 µL mineral oil once a day rectally (last dose 12 h before surgeries) during this period to evacuate the colon. Closed intestinal loops were isolated as described. Mice were anesthetized with isoflurane and body temperature was maintained during surgery at 36-38° C. using a heating pad. A small abdominal incision was made to expose the distal colon, and one closed distal colonic loop (length 1.5-2 cm) was isolated with sutures in each mouse. Loops were injected with 100 µL phosphate-buffered saline (PBS, pH: 7.4, in mM: 137 NaCl, 2.7 KCl, 8 Na2HPO4, 1.8 KH2PO4, 1 CaCl2, 0.5 MgCl2) without and with 10 µM Compound A1 and/or 10 µM tenapanor (MedChemExpress, Monmouth Junction, NJ). The abdominal incision was closed with sutures, and mice were allowed to recover from anesthesia. Colonic loops were removed at 0 and 60 min (in separate mice) and loop length and weight were measured to quantify fluid absorption. Luminal fluid was emptied with a syringe and pH was measured immediately using AB15 pH Meter (Thermo Fisher Scientific, South San Francisco, CA). In separate studies, mid-jejunal loops (length 2-3 cm, 3-4 loops per mouse) were isolated as described above, injected with 100 µL PBS without or with 10 µM Compound A1 and/or 10 µM tenapanor, and excised at 0 and 30 min to measure loop length and weight.\nClosed intestinal loop studies in mice were done to study effects of Compound A1 on fluid absorption. […] Changes in luminal pH were also determined as a semi-quantitative measure of slc26a3-facilitated HCO3^- secretion / C1^- absorption, with slc26a3 inhibition predicted to reduce luminal fluid alkalinization. For these experiments, a phosphate-buffered solution (PBS) without HCO3^- / CO2 was used to avoid confounding effects of luminal carbonic anhydrases. […] Administration of the NHE3 (Na^+/H^+ exchanger 3) inhibitor tenapanor had no effect on weight/length ratio or luminal pH in distal colonic loops."}, "[2]": {"tested_on": "mouse mid-jejunal closed loops", "assay": "Closed mid-jejunal loop fluid absorption in mice", "type": "in vivo", "details": "10 µM intraluminal, 30 min", "method": "as §1"}, "[3]": {"tested_on": "loperamide-treated wild-type mice", "assay": "Loperamide-induced constipation model in wild-type mice", "type": "in vivo", "details": "5 mg/kg oral gavage 1 hour before loperamide, wild-type mice", "method": "Female CD1 mice (age 8-10 weeks) were administered loperamide (0.3 mg/kg, intraperitoneally, Sigma-Aldrich) to produce constipation. Compound A1 (DRAinh-A250) (5 mg/kg, in saline containing vehicle (5% DMSO and 10% Kolliphor HS 15; Sigma-Aldrich)), tenapanor (5 mg/kg, in vehicle), both compounds (5 mg/kg each, in vehicle), or vehicle alone were administered by oral gavage 1 hour before loperamide. After loperamide injection, mice were placed individually in metabolic cages with ad libitum access to food and water. Stool samples were collected for 3 h, and total stool weight and number of fecal pellets were quantified. To measure stool water content, stool samples were dried at 80° C. for 24 h and water content was calculated as [wet weight-dry weight]/wet weight. Similar studies were done in cystic fibrosis (CF) mice (ΔF508 homozygous) lacking functional CFTR.\nConstipation Model in MiceDRAinh-A260 and DRAinh-A270 were tested in a loperamide-induced constipation model in mice. Female CD1 mice (age 8-10 weeks) were administered loperamide (0.3 mg/kg, intraperitoneally, in 5% ethanol in PBS, 0.1 mg/mL final concentration) to produce constipation and vehicle in control mice. DRAinh-A260 (5 mg/kg, in saline with 5% DMSO and 10% Kolliphor HS 15) or DRAinh-A270 (1, 3 or 10 mg/kg, in PBS with 5% DMSO and 20% (2- hydroxypropyl)-β-cyclodextrin) or vehicle alone were administered by oral gavage 1 hour before loperamide (FIG. 11A). After loperamide injection, mice were placed individually in metabolic cages with free access to food and water. Stool samples were collected for 3 hours, and total stool weight and number of fecal pellets were quantified. To measure stool water content, stool samples were dried at 80° C. for 24 hours and water content was calculated as [wet weight-dry weight]/wet weight."}, "[4]": {"biological_target": "T1, NHE3 (Homo sapiens, UniProt P48764)", "T1 sequence (P48764 26-834)": "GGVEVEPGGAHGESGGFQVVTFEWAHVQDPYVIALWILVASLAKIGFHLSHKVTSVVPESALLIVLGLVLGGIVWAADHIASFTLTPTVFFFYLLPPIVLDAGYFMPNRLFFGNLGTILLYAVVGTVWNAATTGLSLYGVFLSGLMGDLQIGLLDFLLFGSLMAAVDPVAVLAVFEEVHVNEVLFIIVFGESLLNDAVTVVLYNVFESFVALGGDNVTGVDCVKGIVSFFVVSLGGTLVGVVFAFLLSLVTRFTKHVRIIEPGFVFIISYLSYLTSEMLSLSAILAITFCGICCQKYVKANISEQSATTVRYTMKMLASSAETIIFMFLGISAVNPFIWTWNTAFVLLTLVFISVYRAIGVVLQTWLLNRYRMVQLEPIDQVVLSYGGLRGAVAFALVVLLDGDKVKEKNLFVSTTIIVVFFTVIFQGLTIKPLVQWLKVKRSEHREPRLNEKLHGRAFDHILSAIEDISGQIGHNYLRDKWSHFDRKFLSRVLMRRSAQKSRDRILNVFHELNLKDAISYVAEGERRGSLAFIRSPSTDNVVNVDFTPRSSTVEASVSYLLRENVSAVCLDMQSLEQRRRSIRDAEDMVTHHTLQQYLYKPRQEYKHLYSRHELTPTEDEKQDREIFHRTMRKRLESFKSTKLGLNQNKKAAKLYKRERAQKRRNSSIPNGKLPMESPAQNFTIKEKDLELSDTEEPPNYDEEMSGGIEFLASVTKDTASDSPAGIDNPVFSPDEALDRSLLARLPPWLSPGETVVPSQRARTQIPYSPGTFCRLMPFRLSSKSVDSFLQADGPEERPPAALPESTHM", "details": "Phase 3, IBS-C, treated group (placebo 18.7 %); cited from earlier work"}, "[5]": {"biological_target": "T2, murine slc26a3 (Mus musculus, UniProt Q9WVC8)", "T2 construct": "host or cells: Fischer rat thyroid (FRT) cells expressing YFP, clonal line FRT-YFP-slc26a3", "T2 sequence (Q9WVC8 1-757)": "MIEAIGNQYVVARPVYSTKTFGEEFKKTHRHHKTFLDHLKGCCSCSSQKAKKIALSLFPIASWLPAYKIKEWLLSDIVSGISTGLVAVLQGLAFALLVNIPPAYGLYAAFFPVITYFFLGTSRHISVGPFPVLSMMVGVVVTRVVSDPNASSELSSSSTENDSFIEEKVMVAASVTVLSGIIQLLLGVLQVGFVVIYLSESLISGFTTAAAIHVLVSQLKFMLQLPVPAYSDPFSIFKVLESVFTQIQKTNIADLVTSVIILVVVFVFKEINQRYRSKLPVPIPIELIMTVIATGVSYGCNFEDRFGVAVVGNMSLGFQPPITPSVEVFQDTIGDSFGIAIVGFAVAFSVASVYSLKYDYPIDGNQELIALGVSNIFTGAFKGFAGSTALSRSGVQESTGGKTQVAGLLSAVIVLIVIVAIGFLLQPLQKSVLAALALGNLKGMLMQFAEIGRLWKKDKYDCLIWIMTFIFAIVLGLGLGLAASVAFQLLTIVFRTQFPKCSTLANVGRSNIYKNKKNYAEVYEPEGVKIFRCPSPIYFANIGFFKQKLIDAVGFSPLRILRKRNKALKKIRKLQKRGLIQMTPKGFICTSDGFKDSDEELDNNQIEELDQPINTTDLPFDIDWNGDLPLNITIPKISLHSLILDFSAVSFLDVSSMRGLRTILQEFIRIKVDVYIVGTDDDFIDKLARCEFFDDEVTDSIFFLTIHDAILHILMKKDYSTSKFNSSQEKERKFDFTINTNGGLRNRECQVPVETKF", "assay": "slc26a3-mediated Cl-/I- exchange, YFP fluorescence quenching in FRT-YFP-slc26a3 cells", "type": "cell-based", "details": "representative Class A compounds, Table 3; read-out: IC50", "method": "High-throughput screening to identify slc26a3 inhibitors using FRT-YFP- slc26a3 cells was done with a semi-automated Beckman Coulter (Indianapolis, IN) platform with FLUOstar OMEGA plate readers (BMG Labtech, Cary, NC), essentially as described for discovery of pendrin inhibitors. Initial screening was done of ~50,000 drug-like synthetic small molecules (ChemDiv, San Diego, CA) at a concentration of 25 µM using a Cl^-/I^- exchange protocol to assay slc26a3 function. Following initial screening, compound analogs were purchased (ChemDiv, San Diego, CA) to generate structure-activity data.\nFor the screening, FRT-YFP-slc26a3 cells were plated in 96-well black-walled, clear-bottom tissue culture plates (Corning Life Sciences, Tewksbury, MA) at a density of 20,000 cells/well and cultured for 48 hours until confluent. For screening, cells were washed twice in PBS and incubated for 10 min in 100 µl PBS containing test compounds prior to assay of slc26a3 function. Assays were done using a FLUOstar OMEGA plate reader (BMG Labtech, Cary, NC) over 12 s with initial fluorescence recorded over 1 s prior to addition of 100 µl NaI-substituted PBS (137 mM NaCl replaced by 137 mM NaI) to drive Cl^-/I^- exchange. The initial rate of Cl^-/I^- exchange was determined from fluorescence intensity by single exponential regression. All plates contained wells with negative (1 % DMSO) and positive (350 µM niflumic acid) controls.\nScreening was done using an FRT cell line stably expressing murine slc26a3 and a halide-sensitive yellow fluorescent protein (FRT-YFP- slc26a3 cells). FRT cells were used because of their low intrinsic permeability to anions that are transported by slc26a3, and because of their good adherence and rapid growth on uncoated plastic. As diagrammed in FIG. 1A, slc26a3-mediated transport was assayed from the kinetics of YFP fluorescence quenching in response to extracellular addition of I^- to drive Cl^-/I^- exchange; transport inhibition reduces the rate of fluorescence decrease."}, "[6]": {"assay": "Pharmacokinetics in mice, serum LC/MS", "type": "in vivo", "method": "Pharmacokinetics of the Compound A1(DRAinh-A250) and analogs (DRAinh-A260 and DRAinh-A270) was determined in mice. After single dose intraperitoneal or oral administration (5 mg/kg for Compound A1 and DRAinh-A260, 10 mg/kg for DRAinh-A270), blood samples were collected via retro-orbital puncture at different time points and serum was separated by centrifugation. Compound concentrations were measured in serum using LC/MS. FIGS. 10A, 10B, 10C show the respective serum concentration of Compound A1 (FIG. 10A), DRAinh-A260 (FIG. 10B) and DRAinh-A270 (FIG. 10C) after single oral or intraperitoneal administration at zero time (n=3 mice per compound per administration route). Compound A1 had predicted therapeutic levels for at least 24 hours after single dose oral or intraperitoneal administration. […] (mean±SEM): 53.9±6.5% for Compound A1, 16.4±6.6% for DRAinh-A260, and 39.3±3.5% for DRAinh-A270."}}, "note": "Entries after “also recorded” stand apart in the source; their conditions may differ.", "data": [{"smiles": "CN1Cc2c(Cl)cc(Cl)cc2[C@H](c2cccc(S(=O)(=O)NCCOCCOCCNC(=O)NCCCCNC(=O)NCCOCCOCCNS(=O)(=O)c3cccc([C@@H]4CN(C)Cc5c(Cl)cc(Cl)cc54)c3)c2)C1", "note": "[tenapanor, reference compound]", "values": [{"measurement": "loop weight/length ratio (fluid absorption), distal colonic loops", "setting": "[1]", "result": "had no effect"}, {"measurement": "luminal pH, distal colonic loops", "setting": "[1]", "result": "had no effect"}, {"measurement": "loop weight/length ratio (fluid absorption), mid-jejunal loops", "setting": "[2]", "result": "fluid absorption was abolished; also recorded: blocked absorption in jejunal"}, {"measurement": "luminal fluid pH, mid-jejunal loops", "setting": "[2]", "result": "preventing acidification and producing slight alkalinization"}, {"measurement": "three-hour stool weight, number of pellets and stool water content", "setting": "[3]", "result": "comparably reduced signs of constipation"}, {"measurement": "three-hour stool weight, number of pellets and stool water content", "setting": "[3]; listed as Tenapanor", "result": "partially prevented"}, {"measurement": "combined pain and stool pattern response rate", "setting": "[4]", "result": 27, "unit": "%"}]}, {"smiles": "Cc1c(CC(=O)O)c(=O)oc2c(C)c(OCc3cccc(C(F)(F)F)c3)ccc12", "note": "[DRAinh-A260]", "values": [{"measurement": "IC50", "setting": "[5]", "result": 25, "unit": "nM"}, {"measurement": "three-hour stool weight, number of pellets and stool water content", "setting": "[3]", "result": "improving stool weight, pellet number and water content; also recorded: improves 3-hour stool weight, pellet number and water content"}, {"measurement": "oral bioavailability", "setting": "[6]; 5 mg/kg (A1, A260) or 10 mg/kg (A270), mice", "result": 16, "unit": "%"}, {"measurement": "serum level time course", "setting": "[6]; 5 mg/kg single dose oral or intraperitoneal", "result": "high serum levels initially; also recorded: almost complete disappearance of compound from serum at 16 hours"}, {"measurement": "bioavailability", "setting": "[6]; mouse, serum, po, 5 mg/kg (A1, A260) or 10 mg/kg (A270), mice, n=3, read-out: oral bioavailability (mean±SEM)", "result": "16.4 ± 6.6", "unit": "%"}]}]}
